According to paper PMC7504215, “Copper(II) Complexes with Mixed Heterocycle Ligands as Promising Antibacterial and Antitumor Species” (Molecules, 2020):
Values after ≈ are worked out from the molar mass of the structure shown. Like-named read-outs stand apart in the source and are kept apart here.

Legend:
E. coli 25922 [1] = experiment: MIC assay, liquid medium microdilution (planktonic growth); type: cell-based, Escherichia coli
Method: (§1) The antibacterial assays were performed on Gram-negative (Escherichia coli ATCC 25922, E. coli 5, Pseudomonas aeruginosa ATCC 27853, P. aeruginosa ATCC 9027) and Gram-positive (Staphylococcus aureus ATCC 25923, S. aureus ATCC 6538, MRSA (Meticillin-resistant S. aureus) 388, ATCC, American Type Culture Collection) bacterial strains. Microbial suspensions (1.5 × 10^8 CFU/mL; colony forming units (CFU)) corresponding to 0.5 McFarland density obtained from 15 to 18-h bacterial cultures developed on solid media were used. The antimicrobial activity was tested on Mueller–Hinton agar medium.
(§2) The quantitative assay of the antimicrobial activity was performed by the liquid medium microdilution method, in 96-well multi-well plates, to establish the minimal inhibitory concentration (MIC). For this purpose, serial two-fold dilutions of the compounds ranging between 1.000 and 1.95 μg/mL were performed in a 200 μL volume of broth and each well was seeded with 50 μL microbial inoculums. Sterility control (wells containing only culture medium) and culture controls (wells containing culture medium seeded with the microbial inoculum) were used. The influence of the DMSO solvent was also quantified in a series of wells containing DMSO, diluted accordingly with the dilution scheme used for the complexes. The plates were incubated for 24 h at 37 °C, and MIC values were considered as the lowest concentration of the tested compound that inhibited the visible growth of the microbial overnight cultures.

E. coli 5 ESBL [2] = experiment: as above; type: cell-based, Escherichia coli
Method: as §1, §2

P. aeruginosa 9027 [3] = experiment: as above; type: cell-based, Pseudomonas aeruginosa
Method: as §1, §2

P. aeruginosa 27853 [4] = experiment: as above; type: cell-based, Pseudomonas aeruginosa
Method: as §1, §2

P. aeruginosa 9027 [5] = experiment: MBEC assay, micro-titer method (biofilm); type: cell-based, Pseudomonas aeruginosa
Method: as §1
(§3) The assessment of the complexes’ influence on the microbial ability to colonize an inert substratum with the establishment of the minimal biofilm eradication concentration (MBEC) was performed by the micro-titer method, following previously described protocols. The absorbance at 490 nm was measured with an Apollo LB 911ELISA (Berthold Technologies GmbH & Co. KG, Waltham, MA, USA) reader. All experiments were performed in triplicates.

P. aeruginosa 27853 [6] = experiment: MBEC assay, micro-titer method (biofilm); type: cell-based, Pseudomonas aeruginosa
Method: as §1, §3

MRSA [7] = experiment: MIC assay, liquid medium microdilution (planktonic growth); type: cell-based, Staphylococcus aureus
Method: as §1, §2

S. aureus 25923 [8] = experiment: as above; type: cell-based, Staphylococcus aureus
Method: as §1, §2

S. aureus 6538 [9] = experiment: as above; type: cell-based, Staphylococcus aureus
Method: as §1, §2

E. coli 25922 [10] = experiment: MBEC assay, micro-titer method (biofilm); type: cell-based, Escherichia coli
Method: as §1, §3

E. coli 5 ESBL [11] = experiment: MBEC assay, micro-titer method (biofilm); type: cell-based, Escherichia coli
Method: as §1, §3

MRSA [12] = experiment: MBEC assay, micro-titer method (biofilm); type: cell-based, Staphylococcus aureus
Method: as §1, §3

S. aureus 25923 [13] = experiment: MBEC assay, micro-titer method (biofilm); type: cell-based, Staphylococcus aureus
Method: as §1, §3

S. aureus 6538 [14] = experiment: MBEC assay, micro-titer method (biofilm); type: cell-based, Staphylococcus aureus
Method: as §1, §3

[15] = system: human colon adenocarcinoma (HT 29) cell; design: method as in doi:10.1007/s10973-016-5425-7; details: cited from earlier work
[16] = Hemolytic activity (adapted ASTM F 756-00); type: cell-based; details: human red blood cells, 4 h at 37 °C, threshold 5% (ASTM F 756-00)
Method: The hemolytic activity of the compounds was determined using an adapted protocol of ASTM F 756–00 standard based on hemoglobin release from human red blood cells (hRBCs) resulting after cell lyses. Briefly, the blood samples were collected from healthy volunteers, diluted to a concentration of hemoglobin ~10 mg/mL with phosphate buffer saline (PBS) and then incubated with various concentrations of compounds for 4 h at 37 °C. After 4 h, the cells were centrifuged, the supernatant was collected, transferred into 96-well tissue culture plates and mixed with Drabkin reagent, which converts hemoglobin to cyanmethemoglobin (absorption peak at 540 nm). After 15 min, the absorbance of the samples was read at 570 nm using a plate reader. The obtained data was background corrected and used to calculate the hemolytic index as percentage of the hemoglobin released after the treatment with the tested compounds, relative to control samples. The hRBCs in PBS and distilled water were used as negative and positive controls.

BJ cells = experiment: Phalloidin staining and cell imaging (cytoskeleton, nucleus); type: cell-based, Human; details: 24 h, 6 μg/mL
Method: (§4) Cytoskeleton actin filaments of BJ and B16 cells were stained with phalloidin-FITC (Sigma-Aldrich, USA) according to the manufacturer’s protocol. Briefly, cells were washed with PBS (5 min, 3 times), fixed for 5 min with 3% paraformaldehyde, washed three times with PBS, permeabilized with 0.1% Triton X-100 in PBS for 15 min, washed three times with PBS, stained with 20 μg mL^−1 phalloidin-FITC at room temperature for 1 h and washed again three times with PBS. Cell nucleus was stained with 8 μM of Hoechst 33342 solution for 10 min, washed three times with PBS and finally, mounted and sealed on glass slides with FluorSave™ Reagent (Merck Millipore, Germany). The fluorescence images were acquired using an Andor DSD2 Confocal Unit (Andor, Ireland), mounted on an epifluorescence microscope, Olympus BX-51 (Olympus, Germany), equipped with a 40x and 100x objective and an appropriate DAPI/Hoechst filter cube (excitation filter 390/40 m, dichroic mirror 405 nm and emission filter 452/45 nm) and GFP/FITC filter cube (excitation filter 466/40 nm, dichroic mirror 488 nm and emission filter 525/54 nm).

[17] = system: normal BJ cell (human fibroblast); experiment: MTT cell viability assay; type: cell-based; details: any tested concentration (0–25 μg/mL), 24 and 48 h
Method: (§5) The cytotoxicity of ligand and copper(II) complexes was tested on normal BJ cell as well as on B16 (melanoma) tumor cells, which were grown for 48 h in culture medium containing the tested complexes in 0–25 μg/mL concentration range.
(§6) Human fibroblast cells (BJ-ATCC CRL-2522, Manassas, VA, USA) were grown in minimal essential medium (MEM) supplemented with 2 mM L-Glutamine, 10% fetal calf serum (FCS), 100 units/mL of penicillin and 100 µg/mL of streptomycin at 37 °C in a humidified incubator under an atmosphere containing 5% CO2. Mouse melanoma cells (B16-ATCC CRL-6475, Manassas, VA, USA) were grown in DMEM (Dulbecco’s Modified Eagle Medium) supplemented with similar reagents as MEM. All cell cultivation media and reagents were purchased from Biochrom AG (Berlin, Germany) and Sigma-Aldrich (Darmstadt, Germany).
(§7) Cell viability was evaluated using 3-(4,5-dimethylthiazol-2-yl)-2,5-diphenyltetrazolium bromide (MTT) assay, as described previously. First, the cells were seeded in 96-well plates (20,000 cells/well) and cultured for 24 h in medium. After overnight incubation, the medium was changed and the investigated sample in concentration varying from […] was added for 24 h. The negative control was represented by cells cultivated in medium without the investigated compounds. Following incubation, the medium was changed and the MTT solution was added to each well to a final concentration of 1 mg/mL and incubated for additional 4 h, at 37 °C. Finally, the medium was collected and DMSO was used to dissolve the insoluble formazan product. The absorbance of the samples was recorded at 570 nm using a plate reader Mithras 940 (Berthold). The data were corrected for the background and the percentage of viable cells was obtained using the equation:Cell viability = [(A570 of treated cells)/(A570 of untreated cells)] × 100%
(§8) The half-maximal inhibitory concentration (IC50) was determined by fitting the data with a logistical sigmoidal equation using the software Origin 8.1 from Microcal Inc. (Los Angeles, CA, USA).

B16 cells = experiment: Phalloidin staining and cell imaging (cytoskeleton, nucleus); type: cell-based, Mouse; details: 24 h, 6 μg/mL
Method: as §4

[18] = system: B16 (melanoma) tumor cells; experiment: MTT cell viability assay; type: cell-based, Mouse; details: any tested concentration (0–25 μg/mL), 24 and 48 h
Method: as §5, §6, §7, §8

[19] = P. aeruginosa 9027 (multi-drug-resistant), 24 h at 37 °C
[20] = P. aeruginosa 27853, 24 h at 37 °C
[21] = Escherichia coli, E. coli 25922, 24 h at 37 °C, read-out: MIC
[22] = Escherichia coli, E. coli 5 ESBL, 24 h at 37 °C, read-out: MIC
[23] = Pseudomonas aeruginosa, P. aeruginosa 9027 (multi-drug-resistant), 24 h at 37 °C, read-out: MIC
[24] = Pseudomonas aeruginosa, P. aeruginosa 27853, 24 h at 37 °C, read-out: MIC
[25] = Staphylococcus aureus, 24 h at 37 °C, read-out: MIC
[26] = Staphylococcus aureus, S. aureus 25923, 24 h at 37 °C, read-out: MIC
[27] = Staphylococcus aureus, S. aureus 6538, 24 h at 37 °C, read-out: MIC

| Molecule | MIC (E. coli 25922 [1]; E. coli 25922, 24 h at 37 °C) | MIC (E. coli 5 ESBL [2]; E. coli 5 ESBL, 24 h at 37 °C) | MIC (P. aeruginosa 9027 [3]; [19]) | MIC (P. aeruginosa 27853 [4]; [20]) | MBEC value (P. aeruginosa 9027 [5]) | MBEC value (P. aeruginosa 27853 [6]) | MIC (MRSA [7]; 24 h at 37 °C) | MIC (S. aureus 25923 [8]; S. aureus 25923, 24 h at 37 °C) | MIC (S. aureus 6538 [9]; S. aureus 6538, 24 h at 37 °C) | MBEC value (E. coli 25922 [10]) | MBEC value (E. coli 5 ESBL [11]) | MBEC value (MRSA [12]) | MBEC value (S. aureus 25923 [13]) | MBEC value (S. aureus 6538 [14]) | MIC (E. coli 25922 [1]; [21]) | MIC (E. coli 5 ESBL [2]; [22]) | MIC (P. aeruginosa 9027 [3]; [23]) | MIC (P. aeruginosa 27853 [4]; [24]) | MIC (MRSA [7]; [25]) | MIC (S. aureus 25923 [8]; [26]) | further results |
| --- | --- | --- | --- | --- | --- | --- | --- | --- | --- | --- | --- | --- | --- | --- | --- | --- | --- | --- | --- | --- | --- |
| O.[Cu+2].[O-][Cl+3]([O-])([O-])[O-].[O-][Cl+3]([O-])([O-])[O-].c1cnc2c(c1)ccc1cccnc12.c1cnc2c(c1)ccc1cccnc12 [CuPP, [Cu(phen)2(OH2)](ClO4)2] | 0.03 mM | 0.03 mM | 0.50 mM | 0.50 mM | 0.50 mM | 0.50 mM | 0.12 mM | 0.03 mM | 0.03 mM | 0.10 mM | 0.30 mM | 0.10 mM | 0.03 mM | 0.03 mM |  |  |  |  |  |  |  |
| CC(=O)[O-].CC(=O)[O-].Cc1cc(-c2ccccc2)nc2ncnn12.[Cu+2] [[Cu(pmtp)(CH3COO)2]·0.5H2O] |  |  |  |  |  |  |  |  |  |  |  |  |  |  |  |  |  |  |  |  | Antiproliferative effect [15]: dose-dependent antiproliferative effect |
| c1ccc(-c2ccccn2)nc1 [bpy, 2,2′-bipyridine] |  |  |  |  | 4.00 mM | 8.00 mM |  |  |  | 8.00 mM | 8.00 mM | 8.00 mM | 4.00 mM | 8.00 mM |  |  |  |  |  |  | MIC (E. coli 25922 [1]; Escherichia coli, 25922, 24 h): 4 mM (≈ 625 µg/mL); MIC (E. coli 5 ESBL [2]; Escherichia coli, 5ESBL, 24 h): 4 mM (≈ 625 µg/mL); MIC (P. aeruginosa 9027 [3]; Pseudomonas aeruginosa, 9027, 24 h): 4 mM (≈ 625 µg/mL); MIC (P. aeruginosa 27853 [4]; Pseudomonas aeruginosa, 27853, 24 h): 8 mM (≈ 1250 µg/mL); MIC (MRSA [7]; Staphylococcus aureus, 24 h): 8 mM (≈ 1250 µg/mL); MIC (S. aureus 25923 [8]; Staphylococcus aureus, 25923, 24 h): 8 mM (≈ 1250 µg/mL); MIC (S. aureus 6538 [9]; Staphylococcus aureus, 6538, 24 h): 8 mM (≈ 1250 µg/mL) |
| c1cnc2c(c1)ccc1cccnc12 [phen, 1,10-phenanthroline] |  |  |  |  | 3.50 mM | 7.00 mM |  |  |  | 7.00 mM | 3.50 mM | 7.00 mM | 7.00 mM | 7.00 mM | 3.5 mM (≈ 631 µg/mL) | 3.5 mM (≈ 631 µg/mL) | 3.5 mM (≈ 631 µg/mL) | 7 mM (≈ 1260 µg/mL) | 7 mM (≈ 1260 µg/mL) | 7 mM (≈ 1260 µg/mL) | MIC (S. aureus 6538 [9]; [27]): 7 mM (≈ 1260 µg/mL) |
| Cc1cc(-c2ccccc2)nc2ncnn12 [pmtp, 5-phenyl-7-methyl-1,2,4-triazolo[1,5-a]pyrimidine] |  |  |  |  | 1.50 mM | 3.00 mM |  |  |  | 6.00 mM | 3.00 mM | 6.00 mM | 6.00 mM | 3.00 mM | 3 mM (≈ 631 µg/mL) | 3 mM (≈ 631 µg/mL) | 3 mM (≈ 631 µg/mL) | 3 mM (≈ 631 µg/mL) | 6 mM (≈ 1260 µg/mL) | 6 mM (≈ 1260 µg/mL) | hemolysis at 4 h, 25 µg/mL [16]: 0.61 ± 0.05%; Cell morphology (cytoskeleton and nucleus) (BJ cells): does not alter its morphology; Effect on viability of BJ cells [17]: did not affect the viability of the two cell lines; Cell morphology (cytoskeleton and nucleus) (B16 cells): does not alter the morphology of the cells; Effect on viability of B16 cells [18]: did not affect the viability of the two cell lines; MIC (S. aureus 6538 [9]; [27]): 3 mM (≈ 631 µg/mL) |
| {[Cu(bpy)2(μ2OClO3)]·ClO4}n [CuBP] | 0.54 mM | 0.54 mM | 1.09 mM | 1.09 mM | 1.09 mM | 1.09 mM | 0.27 mM | 0.27 mM | 0.27 mM | 0.54 mM | 0.54 mM | 0.27 mM | 0.14 mM | 0.14 mM |  |  |  |  |  |  |  |
